{"source": "patent US12440454B2", "about": "“Pharmaceutical compositions containing hemp extract for administration to felines and related methods” (Portland Technology Holdings LLC, priority 2022, dated 2025)", "key": {"[1]": {"test": "24 hour pharmacokinetic analysis of serum cannabinoids after oral CBD/CBDA rich hemp paste", "conditions": "for detectability in serum of cats at any time point: 24 hour PK; for Css Ave (calculated predicted 5 half-life mean serum concentration): predicted steady state from one compartment model", "description": "(§1) Eight cats from a contract research laboratory (Summit Ridge Farms, Gibson, PA) were utilized for this experiment. 4 spayed female cats and 4 neutered male cats were used. […] The cat population ranged from 4.1 kg to 5.4 kg (mean weight 4.7 kg). An initial dosage of 1 g of paste was fed to each cat at zero hours. Additionally, and after the initial 24-hour pharmacokinetic assessment, treatment with 1 g of paste resumed on the next day for 6 days, twice daily at 7 am and 4 pm each day. […] Cats were fed their normal daily meal approximately 1 hour after oral paste consumption. The base of the paste was a proprietary mix of soy oil, dextrose, dried chicken liver, silica, inulin, polysorbate 60, potassium sorbate, sorbic acid, saccharin, mixed tocopherols, methylparaben, propylparaben in descending order of volume with 15% cannabinoid rich hemp oil emulsified with the product. Prior to enrollment all cats involved in the study were deemed healthy and normal based on physical examination, complete blood count and serum chemistry assessment. During the 1-week trial examination of all cats were assessed at the 1 and 4 hour time point after morning dosing. The assessment included examination for physical abnormalities and examination for adverse events including diarrhea, vomiting, lethargy, somnolence, ataxia, or abnormal behavior within the colony during treatment. Regarding the 24 hour pharmacokinetic study, two milliliters of blood was drawn via jugular venipuncture for all 8 cats prior to the initial dose and then again at 0.5, 1, 2, 4, 8 and 24 hours for a 7 point pharmacokinetic analysis. Complete blood counts, serum chemistry and serum cannabinoid concentrations were performed before the initial treatment and at the end of day 7 treatment, 6 hours after the morning treatment. Complete blood count data included white blood cells (WBC), hematocrit, hemoglobin, red blood cells (RBC), neutrophils, lymphocytes, platelets, monocytes, eosinophils, basophils). Serum biochemistry analyses included sodium, potassium, chloride, magnesium, calcium, phosphorus, albumin, total protein, globulin, urea nitrogen, creatinine, alkaline phosphatase (ALP), alanine aminotransferase (ALT), aspartate amino transferase (AST), cholesterol, total bilirubin, glucose and gamma glutamyl transferase (GGT) with a focus of this report being renal and hepatic parameters. All blood parameters measured were performed at the Cornell University Diagnostic Laboratory.\n(§2) Analysis was performed using an exploratory (fit-for-purpose) method for fast measurement of thirteen cannabinoids and their metabolites at the Toxicology Research Laboratory, University of Illinois at Chicago.\nCat serum (40 μL) was mixed with 20 μL of internal standards [100 ng/mL of CBD-d3, THC-d3, THCA-d3, 7-COOH-CBD-d3, 7-OH-CBD-d5, 11-OH-THC-d3, COOH-THC-d9, and COOH-THC-Glu-d3 in water:methanol (50:50)] in a 96 well plate. Proteins were precipitated and compounds were extracted by adding 100 μL of ice-cold acetonitrile to the samples, then vortexing for 1-2 minutes and centrifuging at 4,000 rpm for 10 minutes at 4° C. Supernatants (70 μL) were mixed with 70 μL of water in a different 96 well plate, and centrifuged again. […] The column was equilibrated with mobile phase A (0.1% formic acid in water) and mobile phase B (acetonitrile) at 50% B. The compounds were eluted by a linear gradient from 50% B to […] over 6 minutes, and then held at 95% B for 1 minute. Subsequently, the column was re-equilibrated at initial composition for 1 minute at a flow rate of 0.3 mL/min. The autosampler and column temperature were set a 4 and 30° C., respectively. The compounds were detected in electrospray ionization positive and/or negative mode."}, "[2]": {"test": "Serum cannabinoid concentrations after one week of twice daily dosing (day 7, 6 hours post morning dose) compared with predicted steady state", "conditions": "Student T-test", "description": "as §1, §2\nCat serum (40 μL) was mixed with 20 μL of internal standards [100 ng/mL of CBD-d3, THC-d3, THCA-d3, 7-COOH-CBD-d3, 7-OH-CBD-d5, 11-OH-THC-d3, COOH-THC-d9, and COOH-THC-Glu-d3 in water:methanol (50:50)] in a 96 well plate. Proteins were precipitated and compounds were extracted by adding 100 μL of ice-cold acetonitrile to the samples, then vortexing for 1-2 minutes and centrifuging at 4,000 rpm for 10 minutes at 4° C. Supernatants (70 μL) were mixed with 70 μL of water in a different 96 well plate, and centrifuged again. […] The compounds were detected in electrospray ionization positive and/or negative mode."}, "[3]": {"conditions": "both, in vivo, po, 1 g of paste"}, "[4]": {"conditions": "both, cat, in vivo, po, 1 g of paste"}, "[5]": {"conditions": "cats, single oral 1 g paste, serum, 0-24 h, mean ± SD"}, "[6]": {"conditions": "cats, single oral 1 g paste, serum, mean ± SD"}}, "data": [{"smiles": "CCCCCc1cc(O)c2c(c1)OC(C)(C)[C@@H]1CCC(CO)=C[C@@H]21", "note": "[11-OH-THC, 11-OH-tetrahydrocannabinol]", "values": [{"measurement": "detectability in serum of cats at any time point", "setting": "[1]; cats, serum", "value": "either below the detectable limit for the analyte or less than half of the population showed any appreciable concentration"}]}, {"smiles": "C=C(C)[C@@H]1CCC(C(=O)O)=C[C@H]1c1c(O)cc(CCCCC)cc1O", "note": "[7-COOH-CBD, 7-COOH cannabidiol]", "values": [{"measurement": "detectability in serum of cats at any time point", "setting": "[1]; cats, serum", "value": "found in all cats"}]}, {"smiles": "CCCCCc1cc(O)c2c(c1)OC(C)(C)c1ccc(C)cc1-2", "note": "[CBN, cannabinol]", "values": [{"measurement": "detectability in serum of cats at any time point", "setting": "[1]; cats, serum", "value": "either below the detectable limit for the analyte or less than half of the population showed any appreciable concentration"}]}, {"smiles": "CCCCCc1cc(O)c2c(c1)OC(C)(C)[C@@H]1CCC(C(=O)O)=C[C@@H]21", "note": "[COOH-THC, COOH-tetrahydrocannabinol]", "values": [{"measurement": "detectability in serum of cats at any time point", "setting": "[1]; cats, serum", "value": "either below the detectable limit for the analyte or less than half of the population showed any appreciable concentration"}]}, {"smiles": "CCCCCc1cc(O)c(C/C=C(\\C)CCC=C(C)C)c(O)c1C(=O)O", "note": "[CBGA, cannabigerolic acid]", "values": [{"measurement": "AUC(0-t)", "setting": "[1]; [3]", "value": "34.1 ± 9.5", "unit": "ng·h/mL"}, {"measurement": "Cmax", "setting": "[1]; [3]", "value": "19.7 ± 5.5", "unit": "ng/mL"}, {"measurement": "MRT", "setting": "[1]; [3]", "value": "1.5 ± 0.2", "unit": "h"}, {"measurement": "Tmax", "setting": "[1]; [3]", "value": "1 ± 0.2", "unit": "h"}, {"measurement": "half-life", "setting": "[1]; [3]", "value": "0.7 ± 0.1", "unit": "h"}, {"measurement": "Css Ave (calculated predicted 5 half-life mean serum concentration)", "setting": "[1]; cats, mean ± SD", "value": "4.8 ± 1.3", "unit": "ng/mL"}, {"measurement": "predicted steady state (Css Ave) versus actual serum concentration", "setting": "[2]", "value": "predicted concentration was higher than the actual concentration"}]}, {"smiles": "C=C(C)[C@@H]1CCC(C)=C[C@H]1c1c(O)cc(CCCCC)c(C(=O)O)c1O", "note": "[CBDA, cannabidiolic acid]", "values": [{"measurement": "Cmax", "setting": "[1]; [4]", "value": 1010, "unit": "ng/mL"}, {"measurement": "AUC(0-t)", "setting": "[1]; [3]", "value": "2640 ± 1280", "unit": "ng·h/mL"}, {"measurement": "Cmax", "setting": "[1]; [3]", "value": "1010 ± 495", "unit": "ng/mL"}, {"measurement": "Tmax", "setting": "[1]; [3]", "value": "1.6 ± 1.1", "unit": "h"}, {"measurement": "Css Ave (calculated predicted 5 half-life mean serum concentration)", "setting": "[1]; cats, mean ± SD", "value": "204.5 ± 87.8", "unit": "ng/mL"}, {"measurement": "predicted steady state (Css Ave) versus actual serum concentration", "setting": "[2]", "value": "predicted concentration was higher than the actual concentration"}]}, {"smiles": "CCCCCc1cc(O)c(C/C=C(\\C)CCC=C(C)C)c(O)c1", "note": "[CBG, cannabigerol]", "values": [{"measurement": "AUC(0-t)", "setting": "[1]; both, in vivo, po", "value": "11.4 ± 2.8", "unit": "ng·h/mL"}, {"measurement": "Cmax", "setting": "[1]; both, in vivo, po", "value": "4.35 ± 1", "unit": "ng/mL"}, {"measurement": "MRT", "setting": "[1]; both, in vivo, po", "value": "2.3 ± 0.1", "unit": "h"}, {"measurement": "Tmax", "setting": "[1]; both, in vivo, po", "value": 2, "unit": "h"}, {"measurement": "half-life", "setting": "[1]; both, in vivo, po", "value": "0.9 ± 0.1", "unit": "h"}]}, {"smiles": "CCCCCc1cc2c(c(O)c1C(=O)O)C1C=C(C)CCC1C(C)(C)O2", "note": "(centres unmarked) [THCA, Δ9-tetrahydrocannabinolic acid]", "values": [{"measurement": "Css Ave (calculated predicted 5 half-life mean serum concentration)", "setting": "[1]; cats, mean ± SD", "value": "43.3 ± 13.9", "unit": "ng/mL"}, {"measurement": "AUC(0-t)", "setting": "[1]; [5]", "value": "434.0 ± 229.1", "unit": "ng·h/mL"}, {"measurement": "Cmax", "setting": "[1]; [6]", "value": "87.9 ± 34.0", "unit": "ng/mL"}, {"measurement": "MRT", "setting": "[1]; [6]", "value": "5.5 ± 2.1", "unit": "h"}, {"measurement": "T1/2 el", "setting": "[1]; [6]", "value": "3.8 ± 1.3", "unit": "h"}, {"measurement": "Tmax", "setting": "[1]; [6]", "value": "2 ± 0.9", "unit": "h"}, {"measurement": "predicted steady state (Css Ave) versus actual serum concentration", "setting": "[2]", "value": "no different"}]}, {"smiles": "C=C(C)[C@@H]1CCC(C)=C[C@H]1c1c(O)cc(CCCCC)cc1O", "note": "[CBD, cannabidiol, reference compound]", "values": [{"measurement": "Cmax", "setting": "[1]; [4]", "value": 282, "unit": "ng/mL"}, {"measurement": "AUC(0-t)", "setting": "[1]; [3]", "value": "908 ± 528", "unit": "ng·h/mL"}, {"measurement": "Tmax", "setting": "[1]; [3]", "value": 2, "unit": "h"}, {"measurement": "half-life", "setting": "[1]; [3]", "value": "2.1 ± 1.1", "unit": "h"}, {"measurement": "Css Ave (calculated predicted 5 half-life mean serum concentration)", "setting": "[1]; cats, mean ± SD", "value": "102.1 ± 46.3", "unit": "ng/mL"}, {"measurement": "predicted steady state (Css Ave) versus actual serum concentration", "setting": "[2]", "value": "predicted concentration was higher than the actual concentration"}]}, {"smiles": "CCCCCc1cc(O)c2c(c1)OC(C)(C)[C@@H]1CCC(C)=C[C@@H]21", "note": "[THC, Δ9-tetrahydrocannabinol, reference compound]", "values": [{"measurement": "Css Ave (calculated predicted 5 half-life mean serum concentration)", "setting": "[1]; cats, mean ± SD", "value": "11.9 ± 5.2", "unit": "ng/mL"}, {"measurement": "detectability in serum of cats at any time point", "setting": "[1]; cats, serum", "value": "either below the detectable limit for the analyte or less than half of the population showed any appreciable concentration"}, {"measurement": "AUC(0-t)", "setting": "[1]; [5]", "value": "156.5 ± 65.8", "unit": "ng·h/mL"}, {"measurement": "Cmax", "setting": "[1]; [6]", "value": "40.9 ± 12.9", "unit": "ng/mL"}, {"measurement": "MRT", "setting": "[1]; [6]", "value": "3.7 ± 0.4", "unit": "h"}, {"measurement": "T1/2 el", "setting": "[1]; [6]", "value": "1.6 ± 0.4", "unit": "h"}, {"measurement": "Tmax", "setting": "[1]; [6]", "value": "2 ± 0", "unit": "h"}, {"measurement": "predicted steady state (Css Ave) versus actual serum concentration", "setting": "[2]", "value": "predicted concentration was higher than the actual concentration"}]}, {"smiles": "CCCCCc1cc(O)c2c(c1)OC(C)(C)[C@H]1CCC(C(=O)O[C@@H]3O[C@H](C(=O)O)[C@@H](O)[C@H](O)[C@H]3O)=C[C@H]21", "note": "[COOH-THC-glu, COOH-glucuroniated tetrahydrocannabinol]", "values": [{"measurement": "detectability in serum of cats at any time point", "setting": "[1]; cats, serum", "value": "either below the detectable limit for the analyte or less than half of the population showed any appreciable concentration"}]}, {"smiles": "C=C(C)[C@@H]1CCC(CO)=C[C@H]1c1c(O)cc(CCCCC)cc1O", "note": "[7-OH-CBD, 7-OH-cannabidiol]", "values": [{"measurement": "detectability in serum of cats at any time point", "setting": "[1]; cats, serum", "value": "either below the detectable limit for the analyte or less than half of the population showed any appreciable concentration"}, {"measurement": "cats showing no detectable concentrations of this metabolite", "setting": "[1]; of the 8 cats, serum", "value": 5}]}, {"smiles": "CCCCCc1cc(O)c2c(c1)OC(C)(CCC=C(C)C)C=C2", "note": "(centres unmarked) [CBC, cannabichromene]", "values": [{"measurement": "detectability in serum of cats at any time point", "setting": "[1]; cats, serum", "value": "either below the detectable limit for the analyte or less than half of the population showed any appreciable concentration"}]}]}
